In assay [1] the test system is Mycobacterium tuberculosis. The assay can be described thus: Antitubercular activity against Mycobacterium tuberculosis H37Rv ATCC 27294 by radiometric BACTEC 460 system. It is filed as functional.
The subject of assay [2] is Vero. The assay can be described thus: Cytotoxicity against african green monkey Vero cells. To be noted: Chlorocebus sabaeus. It is filed as cell-based.

SMILES strings stand for the structures. Values after ≈ are worked out from the molar mass of the structure shown.

A word on the MIC: it is the lowest concentration that inhibits growth of the organism. The term IC50 denotes the midpoint of a concentration-inhibition curve.

In the case of `C/C=C(/C)C(=O)O[C@@H]1[C@@H](O)C(C)(C)C[C@H]2C3=CC[C@@H]4[C@]56CC[C@](O)(OC5)C(C)(C)[C@@H]6CC[C@@]4(C)[C@]3(C)CC[C@@]12C(=O)O`, in assay [1], 64 µM (≈ 37.4 µg/mL) was the least that counted as inhibitory (MIC).
Still for that read-out and setting: the same measure for `CCC(C)C(=O)O[C@@H]1CC(C)(C)C[C@H]2C3=CC[C@@H]4[C@]56CC[C@](O)(OC5)C(C)(C)[C@@H]6CC[C@@]4(C)[C@]3(C)CC[C@@]12C(=O)O` (stereo not given in full): 128 µM (≈ 73.1 µg/mL).
The molecule `C/C=C(\C)C(=O)O[C@@H]1[C@@H](O)C(C)(C)C[C@H]2C3=CC[C@@H]4[C@]56CC[C@](O)(OC5)C(C)(C)[C@@H]6CC[C@@]4(C)[C@]3(C)CC[C@@]12C(=O)O` returned an MIC in assay [1] of 128 µM (≈ 74.9 µg/mL).
The same measure, in the same setting: to `CO[C@H]1/C=C/O[C@@]2(C)Oc3c(C)c(O)c4c(O)c(c(/C=N/N5CCN(C)CC5)c(O)c4c3C2=O)NC(=O)/C(C)=C\C=C\[C@H](C)[C@H](O)[C@@H](C)[C@@H](O)[C@@H](C)[C@H](OC(C)=O)[C@@H]1C` [RIFAMPIN] belongs 0.3 µM (≈ 0.247 µg/mL); to `CC1(C)CC[C@]2(C(=O)O)CC[C@]3(C)C(=CC[C@@H]4[C@]56CC[C@@](O)(OC5)C(C)(C)[C@@H]6CC[C@]43C)[C@@H]2C1` [LANTANOLIC ACID], above 128 µM.
Still for that read-out and setting: to `C/C=C(/C)C(=O)O[C@@H]1CC(C)(C)C[C@H]2C3=CC[C@@H]4[C@]56CC[C@@](O)(OC5)C(C)(C)[C@@H]6CC[C@@]4(C)[C@]3(C)CC[C@@]12C(=O)O` [CAMARIC ACID] belongs 64 µM (≈ 36.4 µg/mL).
For the molecule `C/C=C(/C)C(=O)O[C@@H]1CC(C)(C)C[C@H]2C3=CC[C@@H]4[C@@]5(C)CCC(=O)C(C)(C)[C@@H]5CC[C@@]4(C)[C@]3(C)CC[C@@]12C(=O)O` [LANTADENE A], the MIC in assay [1] came to 32 µM (≈ 17.7 µg/mL). Also, the IC50 in assay [2] is 15 µM.
Regarding `CC(C)=CC(=O)O[C@@H]1[C@@H](O)C(C)(C)C[C@H]2C3=CC[C@@H]4[C@]56CC[C@](O)(OC5)C(C)(C)[C@@H]6CC[C@@]4(C)[C@]3(C)CC[C@@]12C(=O)O`, the MIC in assay [1] was 128 µM (≈ 74.9 µg/mL).
The same measure, in the same setting: to `CC(C)=CC(=O)O[C@@H]1CC(C)(C)C[C@H]2C3=CC[C@@H]4[C@]56CC[C@@](O)(OC5)C(C)(C)[C@@H]6CC[C@@]4(C)[C@]3(C)CC[C@@]12C(=O)O` [LANTANILIC ACID] belongs above 128 µM.

The values above are taken from ChEMBL document CHEMBL1150218, “Antitubercular activity of triterpenoids from Lippia turbinata” (J Nat Prod, 2001).
